# Assay results reported in US20120225862A1, “HETEROARYL BENZAMIDES, COMPOSITIONS AND METHODS OF USE” (AUCKLAND UNIVSERVICES LIMITED, priority 2009, published 2012).
# Assays:
# Hck = target: T1, Hck (Homo sapiens, UniProt P08631); assay: In vitro kinase activity (Millipore KinaseProfiler): Hck; format: biochemical; conditions: no head or unit printed
# T1 construct: purchased Millipore (KinaseProfiler service)
# Experimental: (§1) All cells were grown in DMEM+10% FCS. ACHN and ACHN shVHL were a kind gift from George V. Thomas (UCLA). HIF overexpressing clones were described previously. Transfection of RNA oligos were performed with DnarmaFECT Reagent 1 (Dharmcon), according to manufacturer's directions. ON-TARGETplus SMART pools against HIF-1β/ARNT were purchased from Dharmacon. Glut1 was detected with anti-GLUT1 antibody from NeoMarkers/LabVision/Fisher. Pyruvate/lactate levels and hexokinase activity were both measured by fluorometric assay (BioVision and Sigma-Aldrich, respectively). ATP levels were measured by bioluminescence assay (ATP Determination Kit from Molecular Probes/Invitrogen). In vitro kinase activities were performed by Millipore KinaseProfiler. Affi-Gel 10 (BioRad) activated affinity media was coupled to analogs to generate immobilized affinity linkers.
# (§2) We next wanted to investigate the differential glucose uptake between RCCs with and without VHL treated with compound 47 that subsequently lead to the selective death of VHL-deficient cells. We first examined the message levels of the two main glucose transporters, GLUT1 and GLUT2 by quantitative real-time PCR. GLUT1 is an inducible, high-affinity glucose transporter, while GLUT2 is the glucose transporter responsible for basal glucose uptake. […] Cells deficient in VHL had very low levels of GLUT2 that could barely be detected (FIG. 3J). […]
# DAPK1 = target: T2, DAPK1 (Homo sapiens, UniProt P53355); assay: In vitro kinase activity (Millipore KinaseProfiler): DAPK1; format: biochemical; conditions: no head or unit printed
# T2 construct: purchased Millipore (KinaseProfiler service)
# Experimental: as §1, §2
# ASK1 = target: T3, ASK1 (Homo sapiens, UniProt Q99683); assay: In vitro kinase activity (Millipore KinaseProfiler): ASK1; format: biochemical; conditions: no head or unit printed
# T3 construct: purchased Millipore (KinaseProfiler service)
# Experimental: as §1, §2
# RCC4/VHL = assay: XTT IC50 assay, selectivity RCC4 versus RCC4 with VHL-reintroduced; format: cell-based, human; conditions: selectivity ratio of XTT IC50 values, RCC4 vs RCC4/VHL
# In short: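 RCC4 parental and VHL-reintroduced RCC4/VHL cells (DMEM, 10% FCS) treated with serially diluted drug for four days. Viability by XTT (0.3 mg/mL) with N-methyl dibenzopyrazine methyl sulfate, 1–2 h at 37 °C, absorbance 450 nm; IC50 by linear interpolation.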
# T3 sequence (Q99683 whole entry, species assumed): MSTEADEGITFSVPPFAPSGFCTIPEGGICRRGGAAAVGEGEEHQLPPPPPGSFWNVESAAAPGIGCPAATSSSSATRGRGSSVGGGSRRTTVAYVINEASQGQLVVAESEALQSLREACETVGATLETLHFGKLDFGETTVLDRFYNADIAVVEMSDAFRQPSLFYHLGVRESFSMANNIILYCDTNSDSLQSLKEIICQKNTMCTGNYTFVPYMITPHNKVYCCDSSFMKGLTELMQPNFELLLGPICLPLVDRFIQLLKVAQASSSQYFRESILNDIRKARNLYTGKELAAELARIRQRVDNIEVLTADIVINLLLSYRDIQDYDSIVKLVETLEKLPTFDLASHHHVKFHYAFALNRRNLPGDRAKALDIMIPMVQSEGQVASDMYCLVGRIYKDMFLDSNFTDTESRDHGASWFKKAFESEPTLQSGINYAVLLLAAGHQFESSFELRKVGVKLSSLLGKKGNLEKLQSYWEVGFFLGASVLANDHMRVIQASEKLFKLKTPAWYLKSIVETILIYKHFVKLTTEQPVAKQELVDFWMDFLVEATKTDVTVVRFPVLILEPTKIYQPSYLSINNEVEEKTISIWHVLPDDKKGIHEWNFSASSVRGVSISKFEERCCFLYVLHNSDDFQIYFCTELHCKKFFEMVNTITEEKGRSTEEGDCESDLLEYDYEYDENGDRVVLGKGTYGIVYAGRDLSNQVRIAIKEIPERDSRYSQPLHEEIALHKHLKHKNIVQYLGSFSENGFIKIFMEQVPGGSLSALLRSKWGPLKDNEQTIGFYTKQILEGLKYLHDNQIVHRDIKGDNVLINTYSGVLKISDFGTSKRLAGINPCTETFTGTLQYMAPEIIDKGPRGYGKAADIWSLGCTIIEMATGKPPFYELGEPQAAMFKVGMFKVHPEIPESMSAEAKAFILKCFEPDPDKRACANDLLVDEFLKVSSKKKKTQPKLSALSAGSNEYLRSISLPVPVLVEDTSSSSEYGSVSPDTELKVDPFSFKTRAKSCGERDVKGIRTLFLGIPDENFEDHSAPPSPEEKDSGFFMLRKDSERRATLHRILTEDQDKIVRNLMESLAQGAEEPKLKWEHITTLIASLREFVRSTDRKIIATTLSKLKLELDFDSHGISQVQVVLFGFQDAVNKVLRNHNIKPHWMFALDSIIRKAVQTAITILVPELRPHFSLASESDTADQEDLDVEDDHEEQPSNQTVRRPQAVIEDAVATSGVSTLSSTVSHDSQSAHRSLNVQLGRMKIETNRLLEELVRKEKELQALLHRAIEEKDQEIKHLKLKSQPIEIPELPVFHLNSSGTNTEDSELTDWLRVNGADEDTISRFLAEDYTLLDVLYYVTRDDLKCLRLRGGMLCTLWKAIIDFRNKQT
# T2 sequence (P53355 whole entry, species assumed): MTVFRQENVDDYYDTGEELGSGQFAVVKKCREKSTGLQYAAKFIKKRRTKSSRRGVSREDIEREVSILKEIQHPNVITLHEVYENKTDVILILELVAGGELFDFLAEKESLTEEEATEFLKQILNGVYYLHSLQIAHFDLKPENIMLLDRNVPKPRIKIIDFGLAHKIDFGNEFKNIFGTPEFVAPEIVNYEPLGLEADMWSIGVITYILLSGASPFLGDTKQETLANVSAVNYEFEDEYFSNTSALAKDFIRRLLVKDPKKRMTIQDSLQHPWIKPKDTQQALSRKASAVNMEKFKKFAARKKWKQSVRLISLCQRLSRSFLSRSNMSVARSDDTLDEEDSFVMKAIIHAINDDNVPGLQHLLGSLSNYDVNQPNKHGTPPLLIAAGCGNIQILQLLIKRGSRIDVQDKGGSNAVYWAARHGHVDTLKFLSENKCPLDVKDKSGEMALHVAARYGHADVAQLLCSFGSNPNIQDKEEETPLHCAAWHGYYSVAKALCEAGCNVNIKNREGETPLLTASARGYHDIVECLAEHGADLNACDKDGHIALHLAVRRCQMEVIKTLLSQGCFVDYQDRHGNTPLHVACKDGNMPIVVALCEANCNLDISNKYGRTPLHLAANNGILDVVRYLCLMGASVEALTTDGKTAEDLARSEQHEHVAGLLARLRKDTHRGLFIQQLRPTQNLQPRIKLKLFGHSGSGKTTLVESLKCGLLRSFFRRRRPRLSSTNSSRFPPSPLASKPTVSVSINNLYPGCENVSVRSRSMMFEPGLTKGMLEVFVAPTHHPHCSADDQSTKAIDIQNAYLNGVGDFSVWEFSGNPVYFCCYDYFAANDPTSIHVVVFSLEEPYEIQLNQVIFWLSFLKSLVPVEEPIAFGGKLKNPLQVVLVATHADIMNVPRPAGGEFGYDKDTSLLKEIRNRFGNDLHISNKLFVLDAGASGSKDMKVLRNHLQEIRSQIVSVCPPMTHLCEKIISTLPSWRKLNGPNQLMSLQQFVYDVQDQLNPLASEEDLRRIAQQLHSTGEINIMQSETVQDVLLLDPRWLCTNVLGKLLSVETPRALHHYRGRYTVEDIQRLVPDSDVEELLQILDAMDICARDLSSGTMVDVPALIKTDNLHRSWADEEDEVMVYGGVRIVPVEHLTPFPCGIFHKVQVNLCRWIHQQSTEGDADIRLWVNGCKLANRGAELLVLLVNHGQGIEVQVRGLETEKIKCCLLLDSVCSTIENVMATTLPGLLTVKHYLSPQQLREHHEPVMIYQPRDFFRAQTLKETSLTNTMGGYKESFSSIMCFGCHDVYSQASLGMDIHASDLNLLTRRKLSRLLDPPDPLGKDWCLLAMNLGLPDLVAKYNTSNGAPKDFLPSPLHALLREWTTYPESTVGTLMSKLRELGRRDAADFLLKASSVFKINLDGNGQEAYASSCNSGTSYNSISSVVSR
# T1 sequence (P08631 whole entry, species assumed): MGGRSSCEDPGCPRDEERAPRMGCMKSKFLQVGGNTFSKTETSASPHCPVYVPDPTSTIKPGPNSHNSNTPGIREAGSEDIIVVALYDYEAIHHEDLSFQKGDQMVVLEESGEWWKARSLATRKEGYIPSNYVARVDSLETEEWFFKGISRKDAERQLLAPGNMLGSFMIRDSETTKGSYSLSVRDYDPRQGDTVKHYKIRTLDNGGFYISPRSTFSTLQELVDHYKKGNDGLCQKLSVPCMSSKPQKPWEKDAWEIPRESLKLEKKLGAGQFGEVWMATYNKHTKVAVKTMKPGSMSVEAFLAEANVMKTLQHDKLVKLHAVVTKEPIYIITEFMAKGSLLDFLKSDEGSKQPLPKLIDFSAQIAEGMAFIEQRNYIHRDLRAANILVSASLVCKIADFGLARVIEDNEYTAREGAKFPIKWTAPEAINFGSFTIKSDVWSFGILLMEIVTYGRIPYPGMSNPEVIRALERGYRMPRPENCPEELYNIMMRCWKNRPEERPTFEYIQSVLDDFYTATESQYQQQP
smiles,measurement,setting,value
"CC(C)(C)c1ccc(S(=O)(=O)NCc2ccc(C(=O)Nc3cccnc3)cc2)cc1 [Example 38, 4-((4-tert-Butylphenylsulfonamido)methyl)-N-(pyridin-3-yl)benzamide]",Hck kinase activity,Hck,84%
same,DAPK1 kinase activity,DAPK1,92%
same,ASK1 kinase activity,ASK1,129%
same,Ratio (RCC4:RCC/VHL),RCC4/VHL,c (“c” reflects a ratio of >100)
